In publication PMC11784839, “Monoaminergic neurotransmitters are bimodal effectors of tau aggregation” (Science Advances, 2025):

Target: tau (Homo sapiens, UniProt P10636)
Assay: MCE Phenols Library screening, tau biosensor cell seeding assay (AvZ)
Assay type: cell-based
Details: for Z repl 1 / Z Repl 2: Z score; for Z repl 1 / raw data 1: replicate 1; for Z Repl 2 / raw data 2: replicate 2; for AvZ (average z score of seeding, SDs from the mean level of seeding): 10 μM phenol in cell cultures, AD brain homogenate preincubated 16 hours, two biological replicates, positive = catalyzes seeding, negative = inhibits
[1] = average Z score of the two replicates, MCE Phenols Library screen
[2] = average puncta of the two replicates

tau, sequence (P10636 623-695 limits assumed): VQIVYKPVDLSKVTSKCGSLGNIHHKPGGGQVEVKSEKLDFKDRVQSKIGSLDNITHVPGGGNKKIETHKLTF

Row | Compound | Z repl 1 | Z Repl 2 | av Z [1] | av puncta (average of raw data 1 and 2) | raw data 1 (puncta) | raw data 2 (puncta) | av puncta [2] | raw data 1 (raw puncta) | raw data 2 (raw puncta) | AvZ (average z score of seeding, SDs from the mean level of seeding) | av Z (average Z score of the two replicates, tau seeding) | av Z (average Z score of two replicates, Phenols Library screen)
1 | Oc1cc(O)c2cc(O)c(-c3ccc(O)c(O)c3)[o+]c2c1.[Cl-] [Cyanidin (Chloride)] | -1.789 | -1.05 | -1.419 | 3213.88 | 4876.54 | 1551.23 |  |  |  |  |  | 
2 | OC[C@H]1O[C@@H](Oc2cc3c(O)cc(O)cc3[o+]c2-c2ccc(O)c(O)c2)[C@H](O)[C@@H](O)[C@H]1O.[Cl-] [Cyanidin-3-O-galactoside (chloride)] | -1.814 | -0.88 | -1.347 | 3972.36 | 4573.89 | 3370.84 |  |  |  |  |  | 
3 | O=c1c(-c2ccc(O)cc2)coc2cc(O)ccc12 [Daidzein] |  |  |  |  |  |  | 16957.6 | 27554 | 6361.09 |  |  | 
4 | O=C([O-])C(O)Cc1ccc(O)c(O)c1.[Na+] (stereo not shown) [Danshensu (sodium salt)] | -0.172 | -0.817 |  |  | 24282 | 4039.49 | 14160.8 |  |  | -0.495 |  | 
5 | O=C(O)[C@H](O)Cc1ccc(O)c(O)c1 [Danshensu] | -0.37 | -1.076 |  |  | 21904.2 | 1269.24 | 11586.7 |  |  | -0.723 |  | 
6 | O=C1c2cccc(O)c2C(=O)c2c(O)cccc21 [Danthron] | -1.052 | -0.634 | -0.843 | 9858.03 | 13720.6 | 5995.43 |  |  |  |  |  | 
7 | COc1cc2cc(Oc3ccc4ccc(=O)oc4c3)c(=O)oc2cc1O [Daphnoretin] | -0.257 | -0.157 | -0.207 |  |  |  | 17173.7 | 23258.6 | 11088.8 |  |  | 
8 | C/C=C/c1cc(OC)c2c(c1)C(C)C(c1ccc(O)c(OC)c1)O2 (stereo not shown) [Dehydrodiisoeugenol] | 0.835 | 0.419 |  | 26809.6 | 36377.1 | 17242.2 |  |  |  |  | 0.627 | 
9 | OC[C@H]1O[C@@H](Oc2cc3c(O)cc(O)cc3[o+]c2-c2cc(O)c(O)c(O)c2)[C@H](O)[C@@H](O)[C@@H]1O.[Cl-] [Delphinidin 3-glucoside (chloride)] | -1.229 |  | -1.2 | 5928.77 | 11598.4 | 259.098 |  |  |  |  |  | 
10 | Oc1cc(O)c2cc(O)c(-c3cc(O)c(O)c(O)c3)[o+]c2c1.[Cl-] [Delphinidin (chloride)] |  | -0.674 | -1.417 | 2997.99 | 426.071 | 5569.91 |  |  |  |  |  | 
11 | COc1ccc2cc3[n+](cc2c1OC)CCc1cc(O)c(O)cc1-3 [Demethyleneberberine] | -0.088 | -0.204 |  | 17943.1 | 25297.3 | 10588.9 |  |  |  |  |  | -0.146
